pIC50: −log10 of the molar value.
Assays:
Leishmania amazonensis [1] = assay: Antileishmanial activity against Leishmania amazonensis; assay type: functional, organism-based
[2] = Selectivity index, ratio of CC50 for Swiss mouse peritoneal macrophages to IC50 for Leishmania amazonensis IFLA/BR/67/PH8 promastigotes; assay type: functional
Leishmania amazonensis [3] = assay: Antileishmanial activity against Leishmania amazonensis IFLA/BR/67/PH8 promastigotes […] assessed as inhibition of parasite growth after 72 hrs by MTT assay; assay type: functional, organism-based; conditions: IFLA/BR/67/PH8, 72 h
[4] = Cytotoxicity against Swiss mouse peritoneal macrophages after 24 hrs by MTT assay; assay type: cell-based, Peritoneal macrophage cell

| SMILES | pIC50 (Leishmania amazonensis [1]) | Ratio CC50/IC50 [2] | pIC50 (Leishmania amazonensis [3]) | CC50 at 24 h [4] [µM] |
| --- | --- | --- | --- | --- |
| C=C(C(=O)OC)C(O)c1ccccc1[N+](=O)[O-] (centres undefined) | 4.21 | – | – | – |
| C=C(C(=O)OCCO)C(O)c1ccc([N+](=O)[O-])cc1 (racemic) | – | 0.88 | 4.28 | 46.9 |
| C=C(C(=O)OCCC)C(O)c1ccncc1 (racemic) | – | 1.83 | 3.83 | 272 |
| C=C(C(=O)OCCO)C(O)c1ccccc1[N+](=O)[O-] (racemic) | – | 5.43 | 4.69 | 112 |
| C=C(C(=O)OCCO)C(O)c1ccccn1 (racemic) | – | 2.81 | 3.57 | 749 |
| C=C(C(=O)OCCO)C(O)c1ccc(Br)cc1 (racemic) | – | 2.77 | 4.25 | 157 |
| C=C(C(=O)OCCC)C(O)c1ccccn1 (racemic) | – | 3.68 | 3.71 | 715 |
| C=C(C(=O)OCCC)C(O)c1ccc(Br)cc1 (racemic) | – | 1.67 | 4.13 | 125 |
| C=C(C(=O)OCCC)C(O)c1ccc2ccccc2c1 (racemic) | – | 2.59 | 4.26 | 149 |
| C=C(C(=O)OCCC)C(O)c1ccc([N+](=O)[O-])cc1 (racemic) | – | 2.33 | 4.28 | 122 |
| C=C(C(=O)OCCO)C(O)c1ccncc1 (racemic) | – | 1.2 | 3.42 | 458 |
| C=C(C(=O)OCCO)C(O)c1cccnc1 (racemic) | – | 1.29 | 3.49 | 418 |
| C=C(C(=O)OCCO)C(O)c1cccc([N+](=O)[O-])c1 (racemic) | – | 1.06 | 4.19 | 69 |
| C=C(C(=O)OCCC)C(O)c1cccnc1 (racemic) | – | 1.81 | 3.68 | 384 |
| C=C(C(=O)OCCC)C(O)c1cccc([N+](=O)[O-])c1 (racemic) | – | 1.57 | 4.14 | 114 |
| C=C(C(=O)OCCC)C(O)c1ccccc1[N+](=O)[O-] (racemic) | – | 4.75 | 4.55 | 135 |
| C=C(C(=O)OCCO)C(O)c1ccc2ccccc2c1 (racemic) | – | 2.24 | 4.28 | 118 |
